Literature values as cited in patent US10968484B2, “Methods of identifying responses to map kinase inhibition therapy” (The Broad Institute, Inc., priority 2013, dated 2021).
Where two headings read alike, the source gives them in different places.

System: BRAF_V600-mutant melanomas (cell lines)
Settings: read-out: PLX4720 IC50

- IC50 (resistance class of BRAF_V600-mutant melanoma cell lines): ≥ 8 µM
- IC50 (sensitive class of BRAF_V600-mutant melanoma cell lines): < 1.6 µM
Structure (SMILES): CCCS(=O)(=O)Nc1ccc(F)c(C(=O)c2c[nH]c3ncc(Cl)cc23)c1F [PLX4720]
